The values below come from a melting point compilation (Tetko et al.; mined from patent text by program, amines drawn as free bases though some values may be those of a salt).

The melting point is the temperature, or range, at which the solid turns liquid.

Where only a bound is given, the exact number is not on record here.

`COP(=O)(CC1(O)O[C@H](COCc2ccccc2)[C@@H](OCc2ccccc2)[C@H](OCc2ccccc2)[C@H]1OCc1ccccc1)OC` (stereo partly drawn) came in with a melting point of 112 to 113 °C.

In turn, `CCOC(=O)COC(=O)Cc1ccc2cc(OC)ccc2c1` yielded a melting point of 38 to 40 °C.

In turn, `Cc1cc(SC#N)c(C(C)C)cc1O` gave a melting point of 72 to 75 °C.

`O=C1OC(c2ccc(F)cc2)c2ncccc21` (stereo not drawn) returned a melting point of 116 to 118 °C.

The compound `COC(=O)Cc1cc([N+](=O)[O-])c(OC)c2c1N(C(C)=O)CC2` yielded a melting point of 181 to 182 °C.

`COc1cc(OC)c2[nH]c3c(C(=O)Nc4ccc(CCN(C)Cc5ccc(OC)c(OC)c5)cc4)cccc3c(=O)c2c1` returned a melting point of more than 260 °C.

For `N#Cc1ccc2c(c1)C(=O)c1cc3c(cc1OC2)OCO3`, the melting point lay in the range of 217 to 220 °C.

Take `COC(=O)C1=C(NCc2ccccc2)C(=O)O[C@@H]1C`: the melting point was in the range of 68 to 70 °C.

The compound `CCOC(=O)CCCc1oc(-n2ccnc2C)nc1-c1ccc(Cl)cc1` returned a melting point of 72 to 73 °C.

Compound `C=Cc1ccc(C(=O)Oc2ccc(S(=O)(=O)Nc3ccccc3)cc2)cc1` came in with a melting point of 59 to 60 °C.

`Clc1cccc(/C=C/[C@H]2CCCN2c2ncnc3[nH]cnc23)c1` showed a melting point of 194 to 196 °C.

Compound `O=S(=O)(NCc1ccncc1)c1ccc(-c2ccccc2Cl)cc1` registered a melting point of 138 to 141 °C.

`CCC(CC)N(Cc1ccc(C(=O)OC)cn1)S(=O)(=O)c1ccc(F)cc1` registered a melting point of 117 to 119 °C.

On to `COc1cccc(-c2ccc3ccccc3c2Oc2ccc(C=O)cc2)c1`, for which the melting point fell in the range of 125 to 126 °C.

In turn, `CCOC(=O)c1cnc2n(c1=O)CCC(C)C2=NNc1ccccc1` (stereo not drawn) had a melting point of 108 to 110 °C.

`OCCn1cc(C(CC2CCCCCC2)=NO)c2c(Cl)cccc21`: the melting point lay in the range of 120 to 123 °C.

With `COc1cc2c(cc1OC)C(Oc1ccc(C(F)(F)F)cc1)CN(CC#N)CC2` (stereo not drawn), the melting point lay in the range of 93 to 94 °C.

The compound `O=C(O)c1cc(NCc2ccc(C(F)(F)F)cc2)ccc1O` came in with a melting point of more than 188 °C.

The compound `CSc1ncncc1C1c2cc(NS(=O)(=O)c3ccccc3)ccc2CC1(C)C` (stereo not drawn) gave a melting point of 174 to 176 °C.

Compound `O=C(O)Cc1nn(C/C=C/c2cccc(C(F)(F)F)c2F)c(=O)c2ccccc12` returned a melting point of 170 to 172 °C.

With `COC(=O)CCCCCCC1=CC(O)CC1=O` (stereo not drawn), the melting point lay in the range of 50 to 51 °C.

`CC(C)Cn1c(C(=O)O)c(-c2cccs2)c2cc(OCc3ccccc3)ccc2c1=O` displayed a melting point of 171 to 172 °C.

Take `Cc1cc(-c2nc3cccnn3c2-c2ccnc(NC(=O)c3ccccc3)c2)ccc1F`: the melting point was in the range of 189 to 190 °C.

Regarding `CC(C)=C1CCC2(C1)C(=O)C=C(OC(C)C)CC2C` (stereo not drawn), the melting point was 77 to 77.5 °C.

In the case of `C[C@@H](C(=O)c1ccccc1)[C@H](NC(=O)C(F)(F)F)C(=O)OC(C)(C)C`, the melting point fell in the range of 127 to 128 °C.

The compound `CCc1ccc(NC(=S)SC)cc1` registered a melting point of 78 °C.

In turn, `O=C(NC1CC1)c1ccc(-c2ccc(C(CC3CCOCC3)c3ccc(S(=O)(=O)C4CC4)cc3)[nH]2)nc1` (stereo not drawn) registered a melting point of 134 to 136 °C.

The compound `CCCCCCCCCCCC(=O)NC(C)c1c[nH]c(CCCCCCCCCCC)n1` (stereo not drawn) gave a melting point of 56 to 59 °C.

With `CS(=O)(=O)c1ccc(C(=O)O)c(Cl)c1OC1COC1`, the melting point is 180 to 183 °C.

Compound `COc1ccc(C(=CC(=O)N2CCOCC2)c2ccc(Cl)nc2)cc1OC` yielded a melting point of 154 to 160 °C.

`NS(=O)(=O)c1cc2cc3c(cc2[nH]1)OCO3` returned a melting point of 234 to 237 °C.

Compound `O=S1(=O)c2ccccc2N(c2ccc(O)cc2)c2ccccc21` gave a melting point of 308 to 311 °C.

Compound `CCOC(=O)CNC(=O)CCc1cc(Cl)ccc1C(=O)CCCNC(=O)CCCNC(C)=O` displayed a melting point of 94 to 96 °C.

For `CCOC(=O)CCc1ccc(OCc2ccc(OCc3nc(-c4ccccc4)oc3C)cc2)cc1`, the melting point was 105 to 106 °C.

Regarding `Clc1ncnc2c1ncn2CCCN1CCC(COc2ccccc2)CC1`, the melting point lay within 95 to 96 °C.

Compound `CCCCCC/C=C(\C(=O)Nc1ccc(C(=O)O)cc1)c1ccc2c(c1)C(C)(C)CCC2(C)C` had a melting point of 183 to 184 °C.

`CCN1c2ncc(CC(=O)c3ccncc3)cc2C(=O)N(C)c2ccc(Cl)nc21`: the melting point was 154 °C.

With `CCNC(=O)c1ccccc1NC(C)(C)C`, the melting point was in the range of 37 to 40 °C.

As for `Cn1cc(CC(NC(=O)CCCC(=O)O)C(=O)NCCCCNC(=N)N)c2ccccc21` (stereo not drawn), the melting point turned out to be 291 °C.

With `Cc1ccc(NC(=O)c2ccc(/C=C/C(=O)NO)cc2)cc1Nc1nc(-c2cccnc2)cs1`, the melting point was found to be 154 °C.

For the compound `CC(=O)N1CCC(Oc2ccc(N(C)C)cc2)CC1`, the melting point lay in the range of 78 to 80 °C.

In the case of `CCCN(CCCc1c[nH]c2ccc(OC)cc12)C1COc2c(F)ccc(C(N)=O)c2C1` (stereo not drawn), the melting point was 145 to 152 °C.

`O=c1nc2n(cc1-c1ccccc1)CCC2` gave a melting point of 200 to 202 °C.

Consider `O=C(O)c1ccnc(-c2ccc(Cl)c(C(=O)NCC34CC5CC(CC(C5)C3)C4)c2)c1`, for which the melting point was in the range of 284 to 287 °C.

Regarding `CC(C)(C(=O)O)c1oc2cccc-2cc1-c1ccccc1`, the melting point fell in the range of 169 to 171 °C.

Take `Nc1ccc(C(=O)c2cccc(F)c2)cc1`: the melting point fell in the range of 98 to 100 °C.

In the case of `CCOC(=O)C(C)=NNc1ccc(C(O)(C(F)(F)F)C(F)(F)F)cc1`, the melting point is 167 to 168 °C.

`CCCn1c(COCC)nc2c(N)nc3ccc(OC4CCN(C(=O)OC(C)(C)C)CC4)cc3c21` came in with a melting point of 180 to 181 °C.

Regarding `COc1cc(C(=O)O)ccc1Cn1cc(/C=C/C(=O)N(C)C)c2ccc(/C=C/C(=O)N(C)C)cc21`, the melting point is 270 to 272 °C.

For `Clc1ccc2nc(CN3CCN(c4ccc(Cl)c(Cl)c4)CC3)cn2c1`, the melting point lay in the range of 122 to 124 °C.

For the compound `c1cncc(-c2cnc3ccccc3c2)c1`, the melting point was in the range of 117 to 119 °C.

For `Cc1nc(Nc2ccccc2)sc1C(=O)c1ccc(N)c([N+](=O)[O-])c1`, the melting point was in the range of 235 to 239 °C.

As for `CN1CCN(c2cc3c(cc2F)C(=O)c2nc4ccccc4c(=O)n2-3)CC1`, the melting point lay in the range of 257 to 258 °C.

For the compound `CN1C2CCC1CN(C(=O)c1ccco1)C2`, the melting point came to 106 °C.

For `CC(C)(C)OC(=O)[C@@H]1CCCN1CC(=O)[C@H](Cc1ccccc1)NC(=O)OCc1ccccc1`, the melting point is 98 to 99 °C.

The compound `COc1ccc(NC(=O)C(=O)c2c3n(c4ccccc24)CCNCC3)cc1` gave a melting point of 177 to 180 °C.

For the compound `COc1ccc(C(CCCCC(=O)NO)C2=C(C)C(=O)c3ccccc3C2=O)cc1` (stereo not drawn), the melting point fell in the range of 129 to 130 °C.

`ClC(Cl)=CCOc1cc(Cl)c(OCCCCOc2ccc(Cl)cc2)c(Cl)c1`: the melting point is 54.5 °C.

Compound `Cc1ccc(C=C2NC(=O)N(c3cc(F)ccc3F)C2=O)cc1` showed a melting point of 218 to 224 °C.

Turning to `CCNC(=O)[C@@H]1C[C@H](OS(C)(=O)=O)CN1C(=O)OC(C)(C)C`, the melting point fell in the range of 138 to 140 °C.

With `O=C(NCCCc1ccncc1)N(CCCC12CC3CC(CC(C3)C1)C2)CC(F)(F)F`, the melting point lay within 88.9 to 90 °C.

`O=C1NCN2c3ccccc3Sc3cccc1c32`: the melting point is 187 to 192 °C.

`NC(=O)C1CCc2c(C(=O)c3cccs3)cccc21` (stereo not drawn) displayed a melting point of 164 to 166 °C.

In turn, `O=C(O)c1cc(Br)cc([N+](=O)[O-])c1Br` displayed a melting point of 225 to 229 °C.

Regarding `CCCCNCc1ccc(-c2ccccc2S(=O)(=O)NC(C)(C)C)cc1`, the melting point lay within 98 to 99 °C.

`Cc1oc2c(-c3ccc(F)cc3)c(-c3ccc(S(C)(=O)=O)cc3)nn2c1-c1ccccc1`: the melting point was 234 to 236 °C.

For the compound `COC(=O)c1cccc(N)c1CS(=O)(=O)NC(C)(C)C`, the melting point is 123 to 125 °C.

The compound `Nc1ccc(S(=O)(=O)N2CCN(c3ccc(F)cc3)CC2)cc1` came in with a melting point of 180 to 182 °C.

For `Cc1ncccc1C#N`, the melting point was 55 °C.

The compound `CC(C)NCC(O)COc1ccccc1-n1cccc1` (stereo not drawn) showed a melting point of 80 to 81 °C.

As to `C#Cc1cccc(Nc2ncnc3ccc(-c4ccccc4C(=O)OCC)cc23)c1`, the melting point fell in the range of 174 to 177 °C.

Regarding `O=C1CC(c2ccccc2)c2cccc(CCN3CCN(c4nsc5ccccc45)CC3)c2N1` (stereo not drawn), the melting point was determined as 227 °C.

Compound `CCc1ccc(Nc2c(C(=O)NOCCO)ccc(F)c2F)c(F)c1` yielded a melting point of 112 °C.

Compound `O=C(NCC(F)(F)F)c1cc(Cl)cc(Cl)c1` registered a melting point of 145 to 147 °C.

For `COCc1nc(-c2ccc(Br)c(C)c2)no1`, the melting point lay within 52 to 53.5 °C.

As to `Cc1nc(N)ccc1Cl`, the melting point is 74 to 75 °C.

Compound `C=C(C(=O)N1CCOCC1)c1cccc(-c2cc3c(cc2C)C(C)(C)CCC3(C)C)c1` displayed a melting point of 158 to 159 °C.

Consider `O=C(Nc1cccc(-c2c(-c3ccccc3C(F)(F)F)cnc3c(C(F)(F)F)cccc23)c1)Nc1ccccc1Cl`, for which the melting point fell in the range of 230 to 232 °C.

`COCOc1ccc(Cl)cc1-c1cc(-c2cccc([N+](=O)[O-])c2)c(C#N)c(NC(=O)c2ccccc2)n1` registered a melting point of 205 to 206 °C.

`COC(=O)CC1=C(C)Cc2ccc(F)cc21` yielded a melting point of 53 °C.

In turn, `CC(NC(=O)OCc1ccccc1)C(=O)N1CC(=O)NC1(C)C` (stereo not drawn) showed a melting point of 170 to 171 °C.

Consider `O=C(O)C1(CC#CBr)CCCCC1`, for which the melting point was 98 °C.

As for `COC(=O)COc1c(C)cc(SCc2sc(-c3ccc(C(F)(F)F)cc3)nc2C)cc1C`, the melting point was in the range of 104 to 105 °C.

Compound `CC(=O)N(C)N(C)c1ccc(CCn2cnc3cc(-c4ccc(Cl)cc4)sc3c2=O)cc1` had a melting point of 227 to 228 °C.

`Cc1noc(NS(=O)(=O)c2cc(-c3ccccc3)cs2)c1Br` returned a melting point of 108 to 110 °C.

Regarding `CCCC[C@H](NC(=O)[C@H](CC(C)C)NC(=O)c1coc2ccccc12)C(=O)CSCc1ccco1`, the melting point was in the range of 113 to 116 °C.

`Cc1ccc2c(=O)nc(-c3cccc(CCC(=O)O)n3)sc2c1`: the melting point came to 222 °C.

In turn, `O=C(O)C1CCc2c(c3ccccc3n2C(=O)c2cccc(C(F)(F)F)c2)C1` (stereo not drawn) displayed a melting point of 173 to 175 °C.
